These results are taken from article PMC12116657, “A “proto” type galectin expressed in striped bass (Morone saxatilis) tissues is released to epidermal mucus and binds to bacterial and mucus glycans” (Frontiers in Cellular and Infection Microbiology, 2025).

One test has as its system Msgal1-L1. Kind of test: Solid-phase binding-inhibition assay: rMsgal1-L1-HRP binding to asialofetuin (ASF) inhibited by carbohydrates. Particulars: I50 normalized to Galβ1,4Glc (lactose) = 1.0; rMsgal1-L1-HRP binding to ASF; pH 8.0, 23°C, 10 mM ME. Also on record: species or system Morone saxatilis. How it is done: Binding of the rMsgal1-L1–HRP to asialofetuin (ASF) and its inhibition by carbohydrates were assessed and optimized as reported elsewhere ([Ahmed et al., 1996], [2002]). […] Thus, the inhibition of galectin binding to immobilized ASF by mono- and oligosaccharides is a standard system to analyze the fine specificity of novel galectins. Briefly, ASF (0.5 μg/100 μl/well) in 0.1 M Na2CO3/0.02% NaN3 (pH 9.6) was adsorbed onto the plastic wells (37°C, 3 h) and the bound glycoprotein was fixed with 2% formaldehyde (37°C, 30 min). The plates were washed three times with PBS (azide-free)/0.05% Tween 20, and incubated with the Msgal1-L1–HRP conjugate (10 ng/100 μl/well for binding assays) or with a pre-incubated mixture of equal volume of conjugate and varying concentrations of test ligands (for binding-inhibition assays). After incubation (4°C, 1 h) the plates were washed with ice-cold azide-free PBS-Tween 20 buffer and the bound peroxidase activity was assayed with 2,2’-azino-bis(3-ethylbenzothiazoline-6-sulfonic acid) (ABTS) as previously described ([Ahmed et al., 1996]).
The carbohydrate-binding specificity of Msgal1-L1 was determined by analyzing the binding of the rMsgal1-L1–HRP conjugate to ASF in the presence of several saccharides in a solid-phase assay under the optimal conditions of pH and temperature established above (pH 8.0; 23°C) and under a reducing environment (10 mM ME) ([Ahmed et al., 1996], [2002]). For each test saccharide, a complete inhibition curve was obtained, and the molar concentrations that inhibited the binding of the lectin conjugate to ASF by 50% (I 50) were calculated and normalized with respect to Galβ1,4Glc (lactose), which was included in each plate as a standard ( Table 2 ). The binding-inhibition profile for Msgal1-L1 was generally similar to those for proto type galectins from zebrafish (D. rerio), toad (B. arenarum), and domestic cow (Bos taurus). […] The presence of a fucose unit linked in α1,2 to the non-reducing Gal moiety decreased the inhibitory effectiveness in about one-third as compared to lactose, most likely by steric hindrance of the protein–Gal interaction. […] A hydrophobic phenyl group linked to the reducing end of Galβ1,3GlcNAc strengthened the Msgal1-L1 interaction with the ligand 6.5-fold.

Test [1] deals with proto type galectin from zebrafish (Danio rerio). The following applies: relative to Galβ1,4Glc = 1.0; comparison values, reference not given; cited from earlier work.
Test [2] deals with striped bass epidermal mucus. In words: Dot blot binding to untreated and glycosidase-treated epidermal mucus fractions. The arrangement: species or system Morone saxatilis. Particulars: pre-incubation of rMsgal1-L1 with lactose 200 mM; inhibition not complete. How it is done: The crude epidermal mucus was cleared of particulate matter and fractionated by centrifugation at 17,000 rpm for 45 min at 4°C, resulting in three distinct layers: a clear upper layer of lower viscosity, an opaque more viscous layer immediately below that likely contain the highest concentration of mucins, and a loose pellet of solid cellular debris. Fractions obtained from multiple centrifugations were separated and corresponding layers were pooled as “clear upper layer pool” and “viscous intermediate layer pool.”
Pooled mucus layers were treated with N-glycosidase F [peptide-N ^4-(acetyl-β-glucosaminyl) asparagine amidase], O-glycosidase (O-glycopeptide endo-D-galactosyl-N-acetyl-α-galactosamino hydrolase, Roche), endoglycosidase H, or all three enzymes combined. […]
Aliquots (100 μL/well) of untreated or glycosidase-treated epidermal mucus pooled layers were dot-blotted onto PVDF membranes using a Bio-Dot Microfiltration Apparatus (Bio-Rad) under vacuum in replicate wells. […] For detection of endogenous ligands for Msgal1-L1, the membranes were blocked in 5% BSA/PBS, probing with rMsgal1-L1–HRP with or without lactose (200 mM), and detected with Stable-DAB (Invitrogen).

In test [3] the test system is proto type galectin from domestic cow (Bos taurus). The following applies: relative to Galβ1,4Glc = 1.0; comparison values, reference not given; cited from earlier work.
Test [4] concerns proto type galectin from toad (Bufo arenarum). The following applies: relative to Galβ1,4Glc = 1.0; comparison values, reference not given; cited from earlier work.

For the compound `OC[C@H]1O[C@@H](O[C@H]2[C@H](O)[C@@H](O)[C@H](O)O[C@@H]2CO)[C@H](O)[C@@H](O)[C@H]1O` [Galβ1,4Glc, lactose], the “Relative inhibitory activity, Morone saxatilis” value with Msgal1-L1 was determined as 1.0. Also, the “Relative inhibitory activity, Danio rerio” value in test [1] is 1.0. In test [2], the “Inhibition of Msgal1-L1 binding to mucus layers” value is reported as “substantially reduced”. In addition, in test [3], the “Relative inhibitory activity, Bos taurus” value is reported as 1.0. The “Relative inhibitory activity, Bufo arenarum” value in test [4] is 1.0.
